From patent US20220227796A1, “EGFR INHIBITORS, COMPOSITIONS AND METHODS THERE OF” (Betta Pharmaceuticals Co., Ltd., priority 2019, published 2022)
Where two headings read alike, the source gives them in different places.

What was measured:
Type in all cases: cell-based
[1] = biological target: T1, Ba/F3-L858R/T790M/C797S (Homo sapiens, UniProt P00533, T790M/C797S, cells depend on it, form not given); assay: Ba/F3-L858R/T790M/C797S cells proliferation assay; settings: summary in words of Table 2; covers both Ba/F3 triple mutant lines
T1 construct: covers both
T1 sequence (P00533 whole entry T790M/C797S/L858R, form open): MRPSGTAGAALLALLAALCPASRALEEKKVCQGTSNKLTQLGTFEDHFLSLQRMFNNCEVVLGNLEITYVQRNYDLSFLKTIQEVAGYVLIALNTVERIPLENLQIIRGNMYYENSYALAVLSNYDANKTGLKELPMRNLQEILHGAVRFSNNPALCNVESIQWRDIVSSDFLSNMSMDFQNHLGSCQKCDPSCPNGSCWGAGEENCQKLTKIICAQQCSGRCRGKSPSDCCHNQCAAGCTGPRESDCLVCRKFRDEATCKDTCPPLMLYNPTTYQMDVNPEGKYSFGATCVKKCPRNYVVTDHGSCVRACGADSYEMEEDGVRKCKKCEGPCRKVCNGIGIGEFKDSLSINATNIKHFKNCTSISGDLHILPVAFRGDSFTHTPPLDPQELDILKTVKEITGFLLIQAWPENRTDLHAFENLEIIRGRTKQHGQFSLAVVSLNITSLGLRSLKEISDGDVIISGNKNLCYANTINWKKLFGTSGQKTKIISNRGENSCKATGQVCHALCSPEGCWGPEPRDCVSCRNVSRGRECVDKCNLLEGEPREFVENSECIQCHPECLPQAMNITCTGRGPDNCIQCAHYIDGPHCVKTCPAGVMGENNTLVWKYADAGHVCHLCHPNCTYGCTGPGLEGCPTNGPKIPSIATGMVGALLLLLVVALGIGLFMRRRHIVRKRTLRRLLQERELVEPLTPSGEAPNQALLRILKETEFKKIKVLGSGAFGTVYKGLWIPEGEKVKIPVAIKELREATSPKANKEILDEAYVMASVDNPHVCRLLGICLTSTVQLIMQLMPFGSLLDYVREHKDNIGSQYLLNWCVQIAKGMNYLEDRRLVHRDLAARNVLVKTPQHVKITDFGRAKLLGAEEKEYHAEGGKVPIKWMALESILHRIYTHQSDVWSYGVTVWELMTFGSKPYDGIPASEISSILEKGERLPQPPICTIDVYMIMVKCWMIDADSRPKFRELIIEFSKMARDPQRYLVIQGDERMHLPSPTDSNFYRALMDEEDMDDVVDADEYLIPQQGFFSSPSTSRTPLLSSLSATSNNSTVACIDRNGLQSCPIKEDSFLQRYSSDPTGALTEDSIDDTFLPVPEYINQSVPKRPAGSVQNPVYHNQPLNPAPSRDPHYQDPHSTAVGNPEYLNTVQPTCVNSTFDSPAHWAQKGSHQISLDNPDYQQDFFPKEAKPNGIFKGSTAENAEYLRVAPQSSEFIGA
Method: (§1) a) The medium was preheated in a 37 water bath in advance.
(§2) b) Remove the cryogenic vials from the liquid nitrogen tank, quickly put it into a 37° C. water bath, and completely melt it in 1 min.
(§3) c) Transfer the cell suspension to a 15 mL centrifuge tube containing 8 mL medium, centrifuge 1000 rpm, 5 min,
(§4) d) Discard the supernatant, resuspend the cells in 1 mL medium, and transfer to a 75 cm^2 flask containing 15 mL medium, culture the cells in an incubator at 37° C., 5% CO2.
(§5) a) The medium was preheated in a 37° C.; water bath in advance.
(§6) b) Collect cell to a 15 mL centrifuged tube, centrifuge at 1000 rpm for 5 min. Discard the supernatant, count, and make the cell density at 1×10^4 cells/mL, then place it in a 37° C., 5% CO2 incubator.
(§7) b) The above compound solution was diluted 1:20 times with culture medium to prepare a 10 fold working solution;
(§8) a) Take cells in log phase growth, centrifuge at 1000 rpm for 5 min, then resuspend the cells with culture medium, then count cells;
(§9) b) Cells were seeded to 96-well cell culture plate with density at 2000 cells/well;
(§10) The blank control well was a culture medium (0.5% DMSO);
(§11) b) The cells were incubated for an additional 72 h in the incubator.
(§12) a) Remove the 96-well cell culture plate and add 50 μl of CTG reagent (CellTiter Glo kit, promega, Cat #G7573).
(§13) b) Plate was shaked for 2 min and then let it cool for 10 min at room temperature.
(§14) c) The Luminescence signal value was read using a PerkinElmer reader.
(§15) Experimental Data Analysis
(§16) Data were analyzed using GraphPad Prism 6.0 software to obtain a fitted curve of compound activity.
(§17) Y=Bottom+(Top−Bottom)/(1+10^((Log IC50−X)*Hill Slope));
(§18) The cells proliferation assay results are expressed with IC50, shown as Table 2.

[2] = biological target: T2, Ba/F3-L858R/T790M/C797S (Homo sapiens, UniProt P00533, T790M/C797S/L858R, cells depend on it); assay: Ba/F3-L858R/T790M/C797S cells proliferation assay; settings: cell proliferation, 72 h, CellTiter Glo, read-out: BaF3 L858R/T790M/C797S IC50
T2 construct: BaF3 L858R/T790M/C797S IC50; other: cell proliferation, 72 h, CellTiter Glo; class symbols; numeric values
T2 sequence (P00533 whole entry T790M/C797S/L858R): as the sequence (P00533 whole entry T790M/C797S/L858R, form open) above
Method: as §1, §2, §3, §4, §5, §6, §7, §8, §9, §10, §11, §12, §13, §14, §15, §16, §17, §18

[3] = biological target: Ba/F3-Δ19del/T790M/C797S (Homo sapiens, UniProt P00533, T790M/C797S, cells depend on it, form not given); assay: Ba/F3-Δ19del/T790M/C797S cells proliferation assay; settings: cell proliferation, 72 h, CellTiter Glo, read-out: BaF3 Δ 19del/T790M/C797S IC50
Sequence of Ba/F3-Δ19del/T790M/C797S (P00533 with tags, fused parts or gaps DEL746-750/T790M/C797S, form open): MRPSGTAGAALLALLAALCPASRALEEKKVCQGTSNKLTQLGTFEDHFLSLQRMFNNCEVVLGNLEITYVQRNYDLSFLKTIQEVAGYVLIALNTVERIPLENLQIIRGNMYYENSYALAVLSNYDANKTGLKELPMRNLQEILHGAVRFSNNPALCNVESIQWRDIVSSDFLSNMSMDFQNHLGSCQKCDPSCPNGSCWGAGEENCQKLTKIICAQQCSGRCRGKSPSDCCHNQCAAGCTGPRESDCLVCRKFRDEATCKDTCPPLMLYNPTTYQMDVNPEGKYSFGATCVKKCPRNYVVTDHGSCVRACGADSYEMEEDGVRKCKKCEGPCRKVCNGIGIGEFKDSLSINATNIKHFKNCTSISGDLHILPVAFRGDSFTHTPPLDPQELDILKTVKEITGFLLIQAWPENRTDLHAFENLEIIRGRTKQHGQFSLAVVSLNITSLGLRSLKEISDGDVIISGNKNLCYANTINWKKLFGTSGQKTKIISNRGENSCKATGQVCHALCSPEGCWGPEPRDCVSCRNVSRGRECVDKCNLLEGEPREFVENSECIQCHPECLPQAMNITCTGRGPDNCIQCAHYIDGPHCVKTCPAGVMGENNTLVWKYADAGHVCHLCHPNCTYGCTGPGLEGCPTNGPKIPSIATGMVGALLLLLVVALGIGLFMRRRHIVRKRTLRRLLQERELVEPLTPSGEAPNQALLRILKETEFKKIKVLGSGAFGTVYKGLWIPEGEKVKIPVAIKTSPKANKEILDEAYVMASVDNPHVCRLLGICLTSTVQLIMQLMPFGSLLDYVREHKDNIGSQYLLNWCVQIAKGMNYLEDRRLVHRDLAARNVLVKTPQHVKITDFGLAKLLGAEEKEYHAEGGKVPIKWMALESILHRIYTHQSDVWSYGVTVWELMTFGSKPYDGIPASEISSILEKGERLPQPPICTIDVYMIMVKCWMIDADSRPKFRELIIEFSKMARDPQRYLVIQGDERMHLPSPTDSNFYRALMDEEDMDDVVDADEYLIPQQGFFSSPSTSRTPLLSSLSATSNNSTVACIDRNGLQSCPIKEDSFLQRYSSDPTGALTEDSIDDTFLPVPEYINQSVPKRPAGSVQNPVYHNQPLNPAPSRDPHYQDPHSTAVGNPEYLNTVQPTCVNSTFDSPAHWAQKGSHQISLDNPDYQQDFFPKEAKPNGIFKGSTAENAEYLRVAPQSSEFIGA
Method: as §1, §2, §3, §4, §5, §6, §7, §8, §9, §10, §11, §12, §13, §14, §15, §16, §17, §18

[4] = test system: H1975(L858R/T790M); assay: H1975 cells proliferation assay; settings: for IC50: Homo sapiens, NCI-H1975, cell proliferation, 72 h, CellTiter Glo, numeric values, read-out: H1975 IC50; for inhibition of double mutant (L858R/T790M): summary in words of Table 2
In short: (§19)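 HCC827 (2500 cells/well) and H1975 (2000 cells/well) cells seeded in 96-well plates and exposed to compounds for 72 h at 37° C, 5% CO2; 0.5% DMSO medium as blank. Viability by CellTiter-Glo luminescence; IC50 from four-parameter logistic fit.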

[5] = test system: HCC827(Δ19del); assay: HCC827 cells proliferation assay; settings: Homo sapiens, HCC827; cell proliferation, 72 h, CellTiter Glo; numeric values; read-out: HCC827 IC50
In short: as §19

| Compound | inhibition of triple mutant (L858R/T790M/C797S or Δ19del/T790M/C797S) [1] | GI50 ([2]; numeric values) [nM] | GI50 ([3]; numeric values) [nM] | IC50 [4] [nM] | inhibition of double mutant (L858R/T790M) [4] | GI50 ([2]; class symbols) [nM] | GI50 ([3]; class symbols) [nM] | IC50 [5] [nM] |
| --- | --- | --- | --- | --- | --- | --- | --- | --- |
| COc1cc(N2CCC(N3CCN(C)CC3)CC2)c(C)cc1Nc1ncc(Br)c(Nc2ccc3nccnc3c2P(C)(C)=O)n1 [Comparative compound C, (6-((5-bromo-2-((2-methoxy-5-methyl-4-(4-(4-methylpiperazin-1-yl)piperidin-1-yl)phenyl)amino)pyrimidin-4-yl)amino)quinoxalin-5-yl)dimethylphosphine oxide, reference compound] | higher inhibition | 16.8 | 9.6 | 71.4 | relatively low inhibition | – | – | – |
| CCN1CC2(C1)CN(c1ccc(Nc3ncc(Cl)c(Nc4ccccc4P(C)(C)=O)n3)cc1C)C2 [Comparative compound A, (2-((5-chloro-2-((4-(6-ethyl-2,6-diazaspiro[3.3]heptan-2-yl)-3-methylphenyl)amino)pyrimidin-4-yl)amino)phenyl)dimethylphosphine oxide, reference compound] | higher inhibition | – | – | 61.7 | relatively low inhibition | < 10 | < 10 | 89.5 |
| CCc1cc(Nc2ncc(Br)c(Nc3ccc4nccnc4c3P(C)(C)=O)n2)c(OC)cc1N1CCC(N2CCN(C)CC2)CC1 [Comparative compound D, (6-((5-bromo-2-((5-ethyl-2-methoxy-4-(4-(4-methylpiperazin-1-yl)piperidin-1-yl)phenyl)amino)pyrimidin-4-yl)amino)quinoxalin-5-yl)dimethylphosphine oxide, reference compound] | higher inhibition | 12.9 | 5.7 | 83.6 | relatively low inhibition | – | – | – |
